For this test, the system named is NRF2 (NQO1 activity as marker for NRF2 activation), BEAS-2B cells. The experiment in a line: BEAS-2B NQO1 MTT Assay. The test is classed as cell-based. The following applies: Homo sapiens, EC50 of NQO1 specific activity induction, 48 hours incubation, read-out: EC50. Summed up: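 BEAS-2B cells were exposed to compound for 48 h at 37° C, 5% CO2, then lysed. NQO1 activity was measured kinetically by MTT reduction at 570 nm over 30 minutes; EC50 came from 3-parameter fit of Delta OD/min versus log concentration.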

On to `CC[C@@H]1CN(Cc2cc([C@@H](c3ccc4c(nnn4CC)c3C)C(C)(C)C(=O)Nc3cnc(C(=O)N(C)C)nc3)ccc2C)S(=O)(=O)c2ccccc2O1` [Example 189, 5-((S)-3-(3-(((R)-4-Ethyl-1,1-dioxido-3,4-dihydro-2H-benzo[b][1,4,5]oxathiazepin-2-yl)methyl)-4-methylphenyl)-3-(1-ethyl-4-methyl-1H-benzo[d][1,2,3]triazol-5-yl)-2,2-dimethylpropanamido)-N,N-dimethylpyrimidine-2-carboxamide], for which the EC50 (as a rule, the midpoint of the concentration-response curve) was in the range of 100 to 1000 nM.

Turning to `CC[C@@H]1CN(Cc2cc([C@@H](c3ccc4c(nnn4CC)c3C)C(C)(C)C(=O)Nc3cnc(OCC(=O)OC)nc3)ccc2C)S(=O)(=O)c2ccccc2O1` [Example 190, Methyl 2-((5-((S)-3-(3-(((R)-4-ethyl-1,1-dioxido-3,4-dihydro-2H-benzo[b][1,4,5]oxathiazepin-2-yl)methyl)-4-methylphenyl)-3-(1-ethyl-4-methyl-1H-benzo[d][1,2,3]triazol-5-yl)-2,2-dimethylpropanamido)pyrimidin-2-yl)oxy)acetate], the EC50 was 100 to 1000 nM.

For the molecule `CC[C@@H]1CN(Cc2cc([C@@H](c3ccc4c(nnn4CC)c3C)C(C)(C)C(=O)Nc3cnc(OCCNC(=O)OC(C)(C)C)nc3)ccc2C)S(=O)(=O)c2ccccc2O1` [Example 191, tert-Butyl (2-((5-((S)-3-(3-(((R)-4-ethyl-1,1-dioxido-3,4-dihydro-2H-benzo[b]-[1,4,5]oxathiazepin-2-yl)methyl)-4-methylphenyl)-3-(1-ethyl-4-methyl-1H-benzo[d][1,2,3]triazol-5-yl)-2,2-dimethylpropanamido)pyrimidin-2-yl)oxy)-ethyl)carbamate], the EC50 fell in the range of 10 to 100 nM.

In the case of `CC[C@@H]1CN(Cc2cc([C@@H](c3ccc4c(nnn4CC)c3C)C(C)(C)C(=O)Nc3cnc(OCCOC(C)(C)C)nc3)ccc2C)S(=O)(=O)c2ccccc2O1` [Example 192, (S)-N-(2-(2-(tert-Butoxy)ethoxy)pyrimidin-5-yl)-3-(3-(((R)-4-ethyl-1,1-dioxido-3,4-dihydro-2H-benzo[b][1,4,5]oxathiazepin-2-yl)methyl)-4-methylphenyl)-3-(1-ethyl-4-methyl-1H-benzo[d][1,2,3]triazol-5-yl)-2,2-dimethylpropanamide], the concentration giving a half-maximal response (EC50) is 10 to 100 nM.

For `CC[C@@H]1CN(Cc2cc([C@@H](c3ccc4c(nnn4CC)c3C)C(C)(C)C(=O)Nc3cnc(OCCOC)nc3)ccc2C)S(=O)(=O)c2ccccc2O1` [Example 193, (S)-3-(3-(((R)-4-Ethyl-1,1-dioxido-3,4-dihydro-2H-benzo[b][1,4,5]oxathiazepin-2-yl)methyl)-4-methylphenyl)-3-(1-ethyl-4-methyl-1H-benzo[d][1,2,3]triazol-5-yl)-N-(2-(2-methoxyethoxy)pyrimidin-5-yl)-2,2-dimethylpropanamide], the EC50 was 1 to 10 nM.

Turning to `CC[C@@H]1CN(Cc2cc([C@@H](c3ccc4c(nnn4CC)c3C)C(C)(C)C(=O)Nc3cnc(CO)nc3)ccc2C)S(=O)(=O)c2ccccc2O1` [Example 194, (S)-3-(3-(((R)-4-Ethyl-1,1-dioxido-3,4-dihydro-2H-benzo[b][1,4,5]oxathiazepin-2-yl)methyl)-4-methylphenyl)-3-(1-ethyl-4-methyl-1H-benzo[d][1,2,3]triazol-5-yl)-N-(2-(hydroxymethyl)pyrimidin-5-yl)-2,2-dimethylpropanamide], the EC50 was in the range of 10 to 100 nM.

For `CC[C@@H]1CN(Cc2cc([C@@H](c3ccc4c(nnn4CC)c3C)C(C)(C)C(=O)Nc3cnc(C(=O)O)nc3)ccc2C)S(=O)(=O)c2ccccc2O1` [Example 195, 5-((S)-3-(3-(((R)-4-Ethyl-1,1-dioxido-3,4-dihydro-2H-benzo[b][1,4,5]oxathiazepin-2-yl)methyl)-4-methylphenyl)-3-(1-ethyl-4-methyl-1H-benzo[d][1,2,3]triazol-5-yl)-2,2-dimethylpropanamido)pyrimidine-2-carboxylic Acid], the EC50 fell in the range of 10 to 100 nM.

`CC[C@@H]1CN(Cc2cc([C@@H](c3ccc4c(nnn4CC)c3C)C(C)(C)C(=O)Nc3cnc(CN)nc3)ccc2C)S(=O)(=O)c2ccccc2O1` [Example 196, (S)—N-(2-(Aminomethyl)pyrimidin-5-yl)-3-(3-(((R)-4-ethyl-1,1-dioxido-3,4-dihydro-2H-benzo[b][1,4,5]oxathiazepin-2-yl)methyl)-4-methylphenyl)-3-(1-ethyl-4-methyl-1H-benzo[d][1,2,3]triazol-5-yl)-2,2-dimethylpropanamide]: the EC50 fell in the range of 100 to 1000 nM.

Take `CC[C@@H]1CN(Cc2cc([C@@H](c3ccc4c(nnn4CC)c3C)C(C)(C)C(=O)Nc3cnc(OCC(=O)O)nc3)ccc2C)S(=O)(=O)c2ccccc2O1` [Example 197, 2-((5-((S)-3-(3-(((R)-4-Ethyl-1,1-dioxido-3,4-dihydro-2H-benzo[b][1,4,5]oxathiazepin-2-yl)methyl)-4-methylphenyl)-3-(1-ethyl-4-methyl-1H-benzo[d][1,2,3]triazol-5-yl)-2,2-dimethylpropanamido)pyrimidin-2-yl)oxy)acetic Acid]: the EC50 is 10 to 100 nM.

With `CC[C@@H]1CN(Cc2cc([C@@H](c3ccc4c(nnn4CC)c3C)C(C)(C)C(=O)Nc3cnc(OCCN)nc3)ccc2C)S(=O)(=O)c2ccccc2O1` [Example 198, (S)—N-(2-(2-Aminoethoxy)pyrimidin-5-yl)-3-(3-(((R)-4-ethyl-1,1-dioxido-3,4-dihydro-2H-benzo[b][1,4,5]oxathiazepin-2-yl)methyl)-4-methylphenyl)-3-(1-ethyl-4-methyl-1H-benzo[d][1,2,3]triazol-5-yl)-2,2-dimethylpropanamide], the EC50 was 10 to 100 nM.

As to `CC[C@@H]1CN(Cc2cc([C@@H](c3ccc4c(nnn4CC)c3C)C(C)(C)C(=O)Nc3cnc(OCCO)nc3)ccc2C)S(=O)(=O)c2ccccc2O1` [Example 199, (S)-3-(3-(((R)-4-Ethyl-1,1-dioxido-3,4-dihydro-2H-benzo[b][1,4,5]oxathiazepin-2-yl)methyl)-4-methylphenyl)-3-(1-ethyl-4-methyl-1H-benzo[d][1,2,3]triazol-5-yl)-N-(2-(2-hydroxyethoxy)pyrimidin-5-yl)-2,2-dimethylpropanamide], the EC50 is 10 to 100 nM.

As to `CC[C@@H]1CN(Cc2cc([C@@H](c3ccc4c(nnn4CC)c3C)C(C)(C)C(=O)NCC(=O)O)ccc2C)S(=O)(=O)c2ccccc2O1` [Example 200, 2-((S)-3-(3-(((R)-4-ethyl-1,1-dioxido-3,4-dihydro-2H-benzo[b][1,4,5]oxathiazepin-2-yl)methyl)-4-methylphenyl)-3-(1-ethyl-4-methyl-1H-benzo[d][1,2,3]triazol-5-yl)-2,2-dimethylpropanamido)acetate], the EC50 lay within 10 to 100 nM.

With `CC[C@@H]1CN(Cc2cc([C@@H](c3ccc4c(nnn4CC)c3C)C(C)(C)C(=O)NCCC(=O)O)ccc2C)S(=O)(=O)c2ccccc2O1` [Example 201, 3-((S)-3-(3-(((R)-4-ethyl-1,1-dioxido-3,4-dihydro-2H-benzo[b][1,4,5]oxathiazepin-2-yl)methyl)-4-methylphenyl)-3-(1-ethyl-4-methyl-1H-benzo[d][1,2,3]triazol-5-yl)-2,2-dimethylpropanamido)propanoic acid], the EC50 was in the range of 100 to 1000 nM.

Regarding `CC[C@@H]1CN(Cc2cc([C@@H](c3ccc4c(nnn4CC)c3C)C(C)(C)C(=O)NC(CC(=O)O)C(=O)O)ccc2C)S(=O)(=O)c2ccccc2O1` (stereo partly drawn) [Example 202, 2-((S)-3-(3-(((R)-4-ethyl-1,1-dioxido-3,4-dihydro-2H-benzo[b][1,4,5]oxathiazepin-2-yl)methyl)-4-methylphenyl)-3-(1-ethyl-4-methyl-1H-benzo[d][1,2,3]triazol-5-yl)-2,2-dimethylpropanamido)succinic acid], the EC50 lay within 1 to 10 nM.

Turning to `CC[C@@H]1CN(Cc2cc([C@@H](c3ccc4c(nnn4CC)c3C)C(C)(C)C(=O)NC(CC(=O)O)CC(=O)O)ccc2C)S(=O)(=O)c2ccccc2O1` [Example 203, 3-((S)-3-(3-(((R)-4-ethyl-1,1-dioxido-3,4-dihydro-2H-benzo[b][1,4,5]oxathiazepin-2-yl)methyl)-4-methylphenyl)-3-(1-ethyl-4-methyl-1H-benzo[d][1,2,3]triazol-5-yl)-2,2-dimethylpropanamido)pentanedioic acid], the EC50 was in the range of 1000 to 10000 nM.

Regarding `CC[C@@H]1CN(Cc2cc([C@@H](c3ccc4c(nnn4CC)c3C)C(C)(C)C(=O)NC(CC(=O)O)c3ccncc3)ccc2C)S(=O)(=O)c2ccccc2O1` (stereo partly drawn) [Example 204, 3-((S)-3-(3-(((R)-4-ethyl-1,1-dioxido-3,4-dihydro-2H-benzo[b][1,4,5]oxathiazepin-2-yl)methyl)-4-methylphenyl)-3-(1-ethyl-4-methyl-1H-benzo[d][1,2,3]triazol-5-yl)-2,2-dimethylpropanamido)-3-(pyridin-4-yl)propanoic acid], the EC50 lay within 100 to 1000 nM.

In the case of `CC[C@@H]1CN(Cc2cc([C@@H](c3ccc4c(nnn4CC)c3C)C(C)(C)C(=O)NC(C)C(=O)O)ccc2C)S(=O)(=O)c2ccccc2O1` (stereo partly drawn) [Example 205, 2-((S)-3-(3-(((R)-4-ethyl-1,1-dioxido-3,4-dihydro-2H-benzo[b][1,4,5]oxathiazepin-2-yl)methyl)-4-methylphenyl)-3-(1-ethyl-4-methyl-1H-benzo[d][1,2,3]triazol-5-yl)-2,2-dimethylpropanamido)propanoic acid], the EC50 was in the range of 100 to 1000 nM.

Regarding `CC[C@@H]1CN(Cc2cc([C@@H](c3ccc4c(nnn4CC)c3C)C(C)(C)C(=O)NCCC(F)(F)F)ccc2C)S(=O)(=O)c2ccccc2O1` [Example 206, (S)-3-(3-(((R)-4-ethyl-1,1-dioxido-3,4-dihydro-2H-benzo[b][1,4,5]oxathiazepin-2-yl)methyl)-4-methylphenyl)-3-(1-ethyl-4-methyl-1H-benzo[d][1,2,3]triazol-5-yl)-2,2-dimethyl-N-(3,3,3-trifluoropropyl)propanamide], the EC50 fell in the range of 10 to 100 nM.

Values taken from US11078216B2, “Bisaryl amides as NRF2 activators” (GLAXOSMITHKLINE INTELLECTUAL PROPERTY DEVELOPMENT LIMITED, priority 2016, dated 2021).
